In patent US20250042905A1, “DIHYDROPYRROLO[3,4-C]PYRAZOLE DERIVATIVES AND THEIR USE IN DIAGNOSIS” (AC IMMUNE SA, priority 2021, published 2025):
Like-named read-outs stand apart in the source and are kept apart here.

Biological target: T1, PD brain-derived alpha-synuclein aggregates (Homo sapiens, UniProt P37840)
T1 construct: PD brain-derived alpha-synuclein aggregates were spotted onto microarray slides; from tissue; host or cells: human Parkinson's disease patient brain
Assay: Micro-radiobinding competition assay for the determination of binding affinity
Details: for inhibition at 0.1 µM: read-out: Competition at 100 nM (%); for inhibition at 1 µM: read-out: Competition at 1 μM (%); for Ki: concentration range 0.05 nM to 2 μM, nonlinear regression, one site specific binding model
Protocol: Micro-Radiobinding Competition Assay for the Determination of Binding Affinity
PD brain-derived alpha-synuclein aggregates were spotted onto microarray slides. The slides were incubated with tritiated reference alpha-synuclein ligand at 20 nM or 30 nM and the example compounds (non-radiolabelled) at 1 μM and 100 nM. In some cases, the non-radiolabelled example compounds were further assessed for a range of different concentrations, varying from 0.05 nM to 2 μM. After incubation, slides were washed and scanned by a real-time autoradiography system (BeaQuant, ai4R). Quantification of the signal was performed by using the Beamage image analysis software (ai4R). Non-specific signal was determined with an excess of non-radiolabelled reference alpha-synuclein ligand (2 μM) and specific binding was calculated by subtracting the non-specific signal from the total signal. Competition was calculated as percent, where 0% was defined as the specific binding in the presence of vehicle and 100% as the values obtained in the presence of excess of the non-radiolabelled reference alpha-synuclein ligand. Ki values were calculated in GraphPad Prism7 by applying a nonlinear regression curve fit using a one site, specific binding model. All measurements were performed with at least two technical replicates.
Table 4: Assessment of binding affinity by micro-radiobinding competition assay on human PD brain-derived alpha-synuclein aggregates.

[1] = non-radiolabelled example compound at 100 nM, competition with tritiated reference alpha-synuclein ligand (20 nM or 30 nM), 100% = excess non-radiolabelled reference ligand
[2] = non-radiolabelled example compound at 1 μM, competition with tritiated reference alpha-synuclein ligand (20 nM or 30 nM), 100% = excess non-radiolabelled reference ligand

SMILES | inhibition at 0.1 µM [1] [%] | inhibition at 1 µM [2] [%] | other results
O=C1c2cn(-c3cnc(N4CCCC(F)CC4)cn3)nc2CN1c1cccnc1 (centres unmarked) [Example 15, 2-(5-(4-fluoroazepan-1-yl)pyrazin-2-yl)-5-(pyridin-3-yl)-5,6-dihydropyrrolo[3,4-c]pyrazol-4(2H)-one] | 39 | 67 | 
Cc1ccc(N2Cc3nn(-c4cnc(N5CC[C@@H](F)C5)cn4)cc3C2=O)cn1 [Example 17, (R)-2-(5-(3-fluoropyrrolidin-1-yl)pyrazin-2-yl)-5-(6-methylpyridin-3-yl)-5,6-dihydropyrrolo[3,4-c]pyrazol-4(2H)-one] | 46 | 91 | 
O=C1c2cn(-c3ccc(N4CC[C@H](F)C4)nn3)nc2CN1c1ccns1 [Example 32, (S)-2-(6-(3-fluoropyrrolidin-1-yl)pyridazin-3-yl)-5-(isothiazol-5-yl)-5,6-dihydropyrrolo[3,4-c]pyrazol-4(2H)-one] | 61 | 77 | 
COc1cncc(N2Cc3nn(-c4cnc(N5CC(F)C5)cn4)cc3C2=O)c1 [Example 11, 2-(5-(3-fluoroazetidin-1-yl)pyrazin-2-yl)-5-(5-methoxypyridin-3-yl)-5,6-dihydropyrrolo[3,4-c]pyrazol-4(2H)-one] |  |  | inhibition at 0.1 µM: 41%; inhibition at 1 µM: 69%
COc1cncc(N2Cc3nn(-c4ccc(N5CC[C@H](F)C5)nn4)cc3C2=O)c1 [Example 27, (S)-2-(6-(3-fluoropyrrolidin-1-yl)pyridazin-3-yl)-5-(5-methoxypyridin-3-yl)-5,6-dihydropyrrolo[3,4-c]pyrazol-4(2H)-one] | 50 | 57 | 
Cn1cc(N2Cc3nn(-c4cnc(N5CCCCC(F)C5)cn4)cc3C2=O)cn1 (centres unmarked) [Example 8, 2-(5-(3-fluoroazepan-1-yl)pyrazin-2-yl)-5-(1-methyl-1H-pyrazol-4-yl)-5,6-dihydropyrrolo[3,4-c]pyrazol-4(2H)-one] | 45 | 78 | Ki: 33 nM
O=C1c2cn(-c3cnc(N4CC[C@@H](F)C4)cn3)nc2CN1c1cncs1 [Example 9, (R)-2-(5-(3-fluoropyrrolidin-1-yl)pyrazin-2-yl)-5-(thiazol-5-yl)-5,6-dihydropyrrolo[3,4-c]pyrazol-4(2H)-one] |  |  | Ki: 10 nM; inhibition at 0.1 µM: 106%
COc1cncc(N2Cc3nn(-c4ccc(N5CC[C@@H](F)C5)nn4)cc3C2=O)c1 [Example 23, (R)-2-(6-(3-fluoropyrrolidin-1-yl)pyridazin-3-yl)-5-(5-methoxypyridin-3-yl)-5,6-dihydropyrrolo[3,4-c]pyrazol-4(2H)-one] | 65 | 76 | Ki: 182 nM
O=C1c2cn(-c3ccc(N4CC[C@@H](F)C4)nn3)nc2CN1c1ccns1 [Example 31, (R)-2-(6-(3-fluoropyrrolidin-1-yl)pyridazin-3-yl)-5-(isothiazol-5-yl)-5,6-dihydropyrrolo[3,4-c]pyrazol-4(2H)-one] | 71 | 86 | 
Cl.O=C1c2cn(-c3cnc(N4CC[C@@H](F)C4)nc3)nc2CN1c1cccnc1 [Example 37, 2-2-[(3R)-3-fluoropyrrolidin-1-yl]pyrimidin-5-yl-5-(pyridin-3-yl)-2H,4H,5H,6H-pyrrolo[3,4-c]pyrazol-4-one hydrochloride] |  |  | Ki: 356 nM; Competition at 100 nM (%) [1]: 32%; Competition at 1 μM (%) [2]: 78%
O=C1c2cn(-c3cnc(N4CC[C@H](F)C4)cn3)nc2CN1c1cncs1 [Example 12, (S)-2-(5-(3-fluoropyrrolidin-1-yl)pyrazin-2-yl)-5-(thiazol-5-yl)-5,6-dihydropyrrolo[3,4-c]pyrazol-4(2H)-one] |  |  | inhibition at 0.1 µM: 50%
O=C1c2cn(-c3cnc(N4CC[C@H](F)C4)cn3)nc2CN1c1cccnc1 [Example 2, (S)-2-(5-(3-fluoropyrrolidin-1-yl)pyrazin-2-yl)-5-(pyridin-3-yl)-5,6-dihydropyrrolo[3,4-c]pyrazol-4(2H)-one] |  |  | inhibition at 0.1 µM: 74%; inhibition at 1 µM: 98%
O=C1c2cn(-c3ccc(N4CCCCC(F)C4)nn3)nc2CN1c1cccnc1 (centres unmarked) [Example 33, 2-(6-(3-fluoroazepan-1-yl)pyridazin-3-yl)-5-(pyridin-3-yl)-5,6-dihydropyrrolo[3,4-c]pyrazol-4(2H)-one] | 6 | 35 | 
COc1cncc(N2Cc3nn(-c4cnc(N5CC[C@@H](F)C5)cn4)cc3C2=O)c1 [Example 7, (R)-2-(5-(3-fluoropyrrolidin-1-yl)pyrazin-2-yl)-5-(5-methoxypyridin-3-yl)-5,6-dihydropyrrolo[3,4-c]pyrazol-4(2H)-one] |  |  | inhibition at 0.1 µM: 48%; inhibition at 1 µM: 69%
O=C1c2cn(-c3ccc(C(F)(F)F)nn3)nc2CN1c1cccnc1 [Example 35, 5-(pyridin-3-yl)-2-(6-(trifluoromethyl)pyridazin-3-yl)-5,6-dihydropyrrolo[3,4-c]pyrazol-4(2H)-one] | 29 | 34 | 
Cc1ccc(N2Cc3nn(-c4cnc(N5CC[C@H](F)C5)cn4)cc3C2=O)cn1 [Example 18, (S)-2-(5-(3-fluoropyrrolidin-1-yl)pyrazin-2-yl)-5-(6-methylpyridin-3-yl)-5,6-dihydropyrrolo[3,4-c]pyrazol-4(2H)-one] | 38 | 82 | 
O=C1c2cn(-c3cnc(N4CC[C@@H](F)C4)cn3)nc2CN1c1cccnc1 [Example 1, (R)-2-(5-(3-fluoropyrrolidin-1-yl)pyrazin-2-yl)-5-(pyridin-3-yl)-5,6-dihydropyrrolo[3,4-c]pyrazol-4(2H)-one] | 89 | 95 | 
COc1cncc(N2Cc3nn(-c4cnc(N5CC[C@H](F)C5)cn4)cc3C2=O)c1 [Example 10, (S)-2-(5-(3-fluoropyrrolidin-1-yl)pyrazin-2-yl)-5-(5-methoxypyridin-3-yl)-5,6-dihydropyrrolo[3,4-c]pyrazol-4(2H)-one] |  |  | inhibition at 0.1 µM: 59%; inhibition at 1 µM: 82%

Second part, led by results:

inhibition at 0.1 µM [1] [%] | inhibition at 1 µM [2] [%] | SMILES | other results
30 |  | O=C1c2cn(-c3ccc(N4CC[C@@H](F)C4)nn3)nc2CN1c1cncs1 [Example 22, (R)-2-(6-(3-fluoropyrrolidin-1-yl)pyridazin-3-yl)-5-(thiazol-5-yl)-5,6-dihydropyrrolo[3,4-c]pyrazol-4(2H)-one] | 
38 | 74 | O=C1c2cn(-c3ccc(N4CC[C@@H](F)C4)nn3)nc2CN1c1cccnc1 [Example 20, (R)-2-(6-(3-fluoropyrrolidin-1-yl)pyridazin-3-yl)-5-(pyridin-3-yl)-5,6-dihydropyrrolo[3,4-c]pyrazol-4(2H)-one] | Ki: 422 nM
15 | 42 | Cc1ccc(N2Cc3nn(-c4ccc(N5CC[C@@H](F)C5)nn4)cc3C2=O)cn1 [Example 29, (R)-2-(6-(3-fluoropyrrolidin-1-yl)pyridazin-3-yl)-5-(6-methylpyridin-3-yl)-5,6-dihydropyrrolo[3,4-c]pyrazol-4(2H)-one] | 
17 | 73 | O=C1c2cn(-c3ccc(N4CC[C@H](F)C4)nn3)nc2CN1c1cncs1 [Example 25, (S)-2-(6-(3-fluoropyrrolidin-1-yl)pyridazin-3-yl)-5-(thiazol-5-yl)-5,6-dihydropyrrolo[3,4-c]pyrazol-4(2H)-one] | Ki: 222 nM
8 | 76 | Cn1cc(N2Cc3nn(-c4ccc(N5CC[C@H](F)C5)nn4)cc3C2=O)cn1 [Example 26, (S)-2-(6-(3-fluoropyrrolidin-1-yl)pyridazin-3-yl)-5-(1-methyl-1H-pyrazol-4-yl)-5,6-dihydropyrrolo[3,4-c]pyrazol-4(2H)-one] | 
65 | 86 | Cn1cc(N2Cc3nn(-c4ccc(N5CC[C@@H](F)C5)nn4)cc3C2=O)cn1 [Example 21, (R)-2-(6-(3-fluoropyrrolidin-1-yl)pyridazin-3-yl)-5-(1-methyl-1H-pyrazol-4-yl)-5,6-dihydropyrrolo[3,4-c]pyrazol-4(2H)-one] | 
30 | 77 | O=C1c2cn(-c3ccc(N4CC[C@H](F)C4)nn3)nc2CN1c1cccnc1 [Example 24, (S)-2-(6-(3-fluoropyrrolidin-1-yl)pyridazin-3-yl)-5-(pyridin-3-yl)-5,6-dihydropyrrolo[3,4-c]pyrazol-4(2H)-one] | Ki: 236 nM
4 | 39 | Cc1ccc(N2Cc3nn(-c4ccc(N5CC[C@H](F)C5)nn4)cc3C2=O)cn1 [Example 30, (S)-2-(6-(3-fluoropyrrolidin-1-yl)pyridazin-3-yl)-5-(6-methylpyridin-3-yl)-5,6-dihydropyrrolo[3,4-c]pyrazol-4(2H)-one] | 
